Data on 15 compounds can be found in patent publication US6573293B2, “Pyrrole substituted 2-indolinone protein kinase inhibitors” (Sugen, Inc., priority 2000, dated 2003).

One experiment deals with T1, GST-Flk1 (Mus musculus, UniProt P35918).
T1 construct: GST-Flk1cd purified from sf9 recombinant baculovirus transformation; host or cells: Sf9 (baculovirus)
Kind of experiment: GST-FLK-1 bioassay (bio flkGST). The experiment is classed as biochemical.

The next experiment concerns the target GST-FGFR1 (Homo sapiens, UniProt P11362). Kind of experiment: FGFR1 bioassay (bio PGFR1). Type of experiment: biochemical.
The next experiment deals with T2, PDGFR-β (Homo sapiens, UniProt P09619).
T2 construct: host or cells: NIH 3T3
T2 sequence (P09619 33-1106): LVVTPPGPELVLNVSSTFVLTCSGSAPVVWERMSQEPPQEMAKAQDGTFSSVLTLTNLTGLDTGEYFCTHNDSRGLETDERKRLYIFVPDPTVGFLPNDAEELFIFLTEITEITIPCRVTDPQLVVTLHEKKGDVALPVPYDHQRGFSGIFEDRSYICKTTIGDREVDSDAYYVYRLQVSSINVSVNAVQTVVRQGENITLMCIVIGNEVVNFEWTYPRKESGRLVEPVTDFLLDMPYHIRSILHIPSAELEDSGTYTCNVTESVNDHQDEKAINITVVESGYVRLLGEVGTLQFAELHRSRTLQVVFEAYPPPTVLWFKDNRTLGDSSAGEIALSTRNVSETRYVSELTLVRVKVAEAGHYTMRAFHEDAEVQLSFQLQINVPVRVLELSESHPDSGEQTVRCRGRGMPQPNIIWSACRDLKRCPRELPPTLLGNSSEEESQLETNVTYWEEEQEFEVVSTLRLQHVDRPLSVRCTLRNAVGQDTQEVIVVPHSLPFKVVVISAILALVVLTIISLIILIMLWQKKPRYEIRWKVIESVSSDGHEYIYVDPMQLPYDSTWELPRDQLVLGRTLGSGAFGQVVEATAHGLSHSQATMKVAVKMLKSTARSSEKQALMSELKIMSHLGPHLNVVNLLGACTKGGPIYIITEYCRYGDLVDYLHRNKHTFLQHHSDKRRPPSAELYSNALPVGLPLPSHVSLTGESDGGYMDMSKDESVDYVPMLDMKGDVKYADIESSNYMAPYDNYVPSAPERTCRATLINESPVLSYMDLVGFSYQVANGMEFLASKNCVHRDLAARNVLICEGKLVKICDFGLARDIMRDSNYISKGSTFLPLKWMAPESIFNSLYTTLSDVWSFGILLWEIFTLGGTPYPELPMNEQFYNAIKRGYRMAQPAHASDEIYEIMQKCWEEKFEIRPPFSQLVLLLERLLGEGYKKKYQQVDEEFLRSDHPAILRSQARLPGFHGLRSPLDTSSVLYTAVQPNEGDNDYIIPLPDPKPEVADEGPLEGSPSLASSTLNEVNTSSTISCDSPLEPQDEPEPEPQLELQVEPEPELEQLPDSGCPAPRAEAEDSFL
In words: PDGFR bioassay (bio PDGF). Type of experiment: biochemical.

Experiment [1] deals with T3, EGFR (Homo sapiens, UniProt P00533).
T3 construct: A431 cell lysate (SUGEN, Inc.); host or cells: A431
T3 sequence (P00533 25-1210): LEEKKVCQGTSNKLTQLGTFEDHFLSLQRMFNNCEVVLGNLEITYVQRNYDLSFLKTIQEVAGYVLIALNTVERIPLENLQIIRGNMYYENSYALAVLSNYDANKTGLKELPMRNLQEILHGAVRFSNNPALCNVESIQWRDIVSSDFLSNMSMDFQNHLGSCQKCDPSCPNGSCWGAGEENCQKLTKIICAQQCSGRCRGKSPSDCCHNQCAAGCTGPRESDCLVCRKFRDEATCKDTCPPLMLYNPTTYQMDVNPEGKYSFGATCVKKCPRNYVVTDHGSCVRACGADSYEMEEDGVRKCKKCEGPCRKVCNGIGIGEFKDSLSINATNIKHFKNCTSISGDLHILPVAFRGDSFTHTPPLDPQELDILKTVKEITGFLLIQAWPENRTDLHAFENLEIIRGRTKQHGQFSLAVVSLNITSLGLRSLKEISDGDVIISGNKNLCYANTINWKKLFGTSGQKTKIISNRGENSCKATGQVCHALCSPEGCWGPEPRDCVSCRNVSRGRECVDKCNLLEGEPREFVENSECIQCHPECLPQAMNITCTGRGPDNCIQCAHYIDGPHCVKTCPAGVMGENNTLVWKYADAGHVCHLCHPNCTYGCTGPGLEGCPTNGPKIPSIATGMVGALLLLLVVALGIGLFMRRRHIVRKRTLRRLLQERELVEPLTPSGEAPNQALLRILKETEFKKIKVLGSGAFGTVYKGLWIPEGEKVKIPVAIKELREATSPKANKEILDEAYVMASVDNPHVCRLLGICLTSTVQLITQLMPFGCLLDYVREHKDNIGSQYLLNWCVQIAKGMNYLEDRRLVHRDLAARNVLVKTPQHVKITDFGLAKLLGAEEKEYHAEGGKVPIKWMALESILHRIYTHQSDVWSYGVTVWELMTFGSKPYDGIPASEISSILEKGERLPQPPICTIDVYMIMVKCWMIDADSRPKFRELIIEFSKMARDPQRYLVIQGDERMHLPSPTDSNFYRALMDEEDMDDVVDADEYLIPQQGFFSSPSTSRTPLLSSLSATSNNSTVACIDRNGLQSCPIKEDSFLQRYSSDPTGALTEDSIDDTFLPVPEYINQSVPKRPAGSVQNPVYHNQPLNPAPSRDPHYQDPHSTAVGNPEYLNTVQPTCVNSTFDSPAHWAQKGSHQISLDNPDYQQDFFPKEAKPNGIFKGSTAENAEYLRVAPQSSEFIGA
In words: EGFR bioassay (bio EGF). Type of experiment: biochemical.

Experiment [2] has as its target T3, EGFR. In words: cell EGF assay. The experiment is classed as cell-based. Summed up:
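Cells expressing the kinase are exposed to compound, then stimulated with activating ligand and lysed. Lysate is captured on substrate-specific antibody ELISA plates and substrate phosphorylation is detected with anti-phosphotyrosine antibody, relative to untreated control cells.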

Experiment [3] has as its target T4, HA epitope-tagged full length pyk2 (FL.pyk2-HA) (Homo sapiens, UniProt Q14289).
T4 construct: host or cells: Sf9
In words: PYK2 bioassay. As to conditions: read-out: bio pyk2 IC50. Type of experiment: biochemical.

A further experiment concerns the target T5, HER-2 kinase (Homo sapiens, UniProt P04626).
T5 construct: Use EGFr/HER-2 chimera/3T3-C7 cell line for this assay; It is expressed in mouse NIH 3T3 clone C7 cells; P00533 (Epidermal growth factor receptor)
Kind of experiment: Cellular HER-2 kinase assay. The experiment is classed as cell-based. As to conditions: read-out: Her2 Kinase IC50.

The target in a further experiment is T6, human cdk2/cyclin A (Homo sapiens, UniProt P24941).
T6 construct: host or cells: Sf9
Kind of experiment: CDK2/cyclin A scintillation proximity assay (cdk2spa). The experiment is classed as biochemical. The conditions noted are these: read-out: cdk2spa C50. (In general: Scintillation proximity formats need no separation of bound from free tracer.)

Where only a bound is given, the exact number is not on record here.

T1 sequence (P35918 784-1345 limits assumed): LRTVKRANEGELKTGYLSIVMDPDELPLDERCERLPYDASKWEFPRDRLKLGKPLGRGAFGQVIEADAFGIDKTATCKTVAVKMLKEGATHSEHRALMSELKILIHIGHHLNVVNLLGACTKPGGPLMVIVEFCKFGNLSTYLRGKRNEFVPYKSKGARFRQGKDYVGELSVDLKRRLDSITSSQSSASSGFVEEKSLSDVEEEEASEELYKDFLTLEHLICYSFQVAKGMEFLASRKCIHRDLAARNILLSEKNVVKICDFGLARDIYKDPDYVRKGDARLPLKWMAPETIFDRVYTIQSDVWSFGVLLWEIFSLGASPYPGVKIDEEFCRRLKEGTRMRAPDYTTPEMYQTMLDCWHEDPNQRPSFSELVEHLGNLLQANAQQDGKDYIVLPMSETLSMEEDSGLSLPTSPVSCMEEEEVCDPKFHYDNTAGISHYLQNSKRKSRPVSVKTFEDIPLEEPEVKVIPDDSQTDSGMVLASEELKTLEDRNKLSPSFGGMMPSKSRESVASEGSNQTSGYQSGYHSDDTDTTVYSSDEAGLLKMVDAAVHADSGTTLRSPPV
Sequence of GST-FGFR1 (P11362 22-822): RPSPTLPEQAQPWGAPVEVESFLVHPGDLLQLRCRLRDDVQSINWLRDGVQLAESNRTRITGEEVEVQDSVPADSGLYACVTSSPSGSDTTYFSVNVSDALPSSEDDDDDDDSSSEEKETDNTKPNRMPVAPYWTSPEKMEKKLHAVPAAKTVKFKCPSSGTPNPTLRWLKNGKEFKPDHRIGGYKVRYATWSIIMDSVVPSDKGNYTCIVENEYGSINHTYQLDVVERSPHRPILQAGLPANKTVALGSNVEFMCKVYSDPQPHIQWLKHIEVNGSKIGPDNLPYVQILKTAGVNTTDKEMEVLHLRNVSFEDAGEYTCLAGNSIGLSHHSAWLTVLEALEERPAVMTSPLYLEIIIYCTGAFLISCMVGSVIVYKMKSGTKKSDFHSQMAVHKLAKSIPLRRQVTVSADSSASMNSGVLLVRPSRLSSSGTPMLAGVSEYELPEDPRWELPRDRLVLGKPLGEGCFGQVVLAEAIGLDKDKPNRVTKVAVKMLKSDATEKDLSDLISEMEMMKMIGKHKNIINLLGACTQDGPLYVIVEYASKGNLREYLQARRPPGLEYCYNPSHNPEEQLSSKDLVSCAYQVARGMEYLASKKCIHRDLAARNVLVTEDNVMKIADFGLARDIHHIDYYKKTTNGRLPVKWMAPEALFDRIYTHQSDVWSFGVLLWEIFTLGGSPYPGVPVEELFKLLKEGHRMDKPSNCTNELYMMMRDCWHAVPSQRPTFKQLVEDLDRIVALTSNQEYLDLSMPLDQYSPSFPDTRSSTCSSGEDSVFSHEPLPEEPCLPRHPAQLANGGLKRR
T4 sequence (Q14289 whole entry): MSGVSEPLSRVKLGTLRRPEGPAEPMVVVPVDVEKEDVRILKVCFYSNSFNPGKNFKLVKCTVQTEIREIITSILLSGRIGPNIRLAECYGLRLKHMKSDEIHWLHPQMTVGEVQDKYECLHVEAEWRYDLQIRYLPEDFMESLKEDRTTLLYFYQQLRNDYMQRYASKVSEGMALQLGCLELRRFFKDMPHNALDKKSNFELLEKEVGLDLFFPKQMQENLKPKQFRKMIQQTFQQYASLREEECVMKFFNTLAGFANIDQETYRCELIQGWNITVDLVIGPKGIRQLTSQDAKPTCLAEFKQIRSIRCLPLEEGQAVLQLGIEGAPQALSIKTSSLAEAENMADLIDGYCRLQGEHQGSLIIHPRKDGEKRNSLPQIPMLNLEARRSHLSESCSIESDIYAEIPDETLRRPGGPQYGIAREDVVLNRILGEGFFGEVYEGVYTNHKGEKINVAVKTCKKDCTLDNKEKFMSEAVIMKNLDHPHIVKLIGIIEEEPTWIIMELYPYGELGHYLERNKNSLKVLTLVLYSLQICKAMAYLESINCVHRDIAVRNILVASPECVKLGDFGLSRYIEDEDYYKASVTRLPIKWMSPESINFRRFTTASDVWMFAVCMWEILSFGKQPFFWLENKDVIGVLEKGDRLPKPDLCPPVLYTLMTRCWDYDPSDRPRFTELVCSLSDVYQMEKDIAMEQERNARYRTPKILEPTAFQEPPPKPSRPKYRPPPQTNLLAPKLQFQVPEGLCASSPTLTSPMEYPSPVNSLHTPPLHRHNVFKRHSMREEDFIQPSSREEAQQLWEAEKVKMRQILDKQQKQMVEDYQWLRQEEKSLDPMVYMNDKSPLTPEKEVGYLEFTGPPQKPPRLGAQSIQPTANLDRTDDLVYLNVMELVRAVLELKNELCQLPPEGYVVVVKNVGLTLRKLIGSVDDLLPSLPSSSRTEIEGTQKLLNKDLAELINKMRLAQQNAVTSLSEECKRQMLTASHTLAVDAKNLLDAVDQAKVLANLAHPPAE
T5 sequence (P04626 720-987 limits assumed): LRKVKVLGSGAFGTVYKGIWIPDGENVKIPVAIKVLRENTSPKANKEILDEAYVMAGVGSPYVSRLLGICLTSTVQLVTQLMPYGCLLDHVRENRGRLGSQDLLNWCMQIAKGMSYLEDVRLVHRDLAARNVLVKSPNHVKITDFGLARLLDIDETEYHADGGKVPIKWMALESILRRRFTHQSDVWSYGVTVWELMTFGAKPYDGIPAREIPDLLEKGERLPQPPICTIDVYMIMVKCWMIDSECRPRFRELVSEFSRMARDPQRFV

On to `Cc1cc(C(=O)O)[nH]c1/C=C1\C(=O)Nc2ccccc21` [Example 1, 4-Methyl-5-(2-oxo-1,2-dihydroindol-3-ylidenemethyl)-1H-pyrrole-2-carboxylic acid], for which the IC50 is 57.7 µM at GST-Flk1; 15.2 µM at GST-FGFR1; greater than 100 µM at PDGFR-β; greater than 100 µM at EGFR [1]; greater than 100 µM against EGFR [2]; greater than 100 µM in experiment [3].
As to `COC(=O)c1cc(C)c(/C=C2\C(=O)Nc3ccccc32)[nH]1` [Example 3, 4-Methyl-5-(2-oxo-1,2-dihydroindol-3-ylidenemethyl)-1H-pyrrole-2-carboxylic acid methyl ester], the IC50 at GST-Flk1 is 9.85 µM; against GST-FGFR1, 9.62 µM; against PDGFR-β, greater than 100 µM; against EGFR [1], greater than 100 µM; against EGFR [2], greater than 100 µM; in experiment [3], greater than 100 µM.
For the compound `CCN(CC)CCNC(=O)c1[nH]c(/C=C2\C(=O)Nc3ccc(Br)cc32)c2c1CCCC2` [Example 17, 3-(5-Bromo-2-oxo-1,2-dihydroindol-3-ylidenemethyl)-4,5,6,7-tetrahydro-2H-isoindole-1-carboxylic acid (2-diethylaminoethyl)amide], the IC50 was 8.25 µM against GST-Flk1; 2.47 µM at GST-FGFR1; 94.4 µM at PDGFR-β; 0.83 µM against EGFR [1]; 11.5 µM on EGFR [2]; 15.9 µM at HER-2 kinase. The IC50 at human cdk2/cyclin A was greater than 10 µM.
Regarding `CCN(CC)CCCNC(=O)c1c(C)[nH]c(/C=C2\C(=O)Nc3ccc(Br)cc32)c1-c1ccccc1` [Example 47, 5-(5-Bromo-2-oxo-1,2-dihydroindol-3-ylidenemethyl)-2-methyl-4-phenyl-1H-pyrrole-3-carboxylic acid (3-diethylaminopropyl)amide], the IC50 was 0.08 µM on GST-Flk1; 1.56 µM against GST-FGFR1; 0.06 µM against PDGFR-β; 11.4 µM on EGFR [1]; 41.5 µM against EGFR [2]; 8.4 µM on HER-2 kinase. Besides, the IC50 in experiment [3] is 1.05 µM.
In the case of `Cc1[nH]c(/C=C2\C(=O)Nc3ccc(Br)cc32)c(C)c1C(=O)NCCN(C)C` [Example 48, 5-(5-Bromo-2-oxo-1,2-dihydroindol-3-ylidenemethyl)-2,4-dimethyl-1H-pyrrole-3-carboxylic acid (2-dimethylamino-ethyl)amide], the IC50 was 0.006 µM on GST-Flk1; 0.3 µM against GST-FGFR1; less than 0.78 µM on PDGFR-β; 17.9 µM against EGFR [1]; 21.6 µM against EGFR [2]; 7.93 µM at HER-2 kinase. Besides, the IC50 in experiment [3] was 0.09 µM.
Regarding `CCN(CC)CCNC(=O)c1c(C)[nH]c(/C=C2\C(=O)Nc3ccc(Br)cc32)c1C` [Example 51, 5-(5-Bromo-2-oxo-1,2-dihydroindol-3-ylidenemethyl)-2,4-dimethyl-1H-pyrrole-3-carboxylic acid (2-diethylaminoethyl)amide], the IC50 against GST-FGFR1 came out at 1.66 µM; against PDGFR-β, 0.01 µM; against EGFR [1] it was 18.1 µM; against EGFR [2] it was 21.6 µM; at HER-2 kinase, 23.2 µM; on human cdk2/cyclin A, 16.7 µM. For the same compound, in experiment [3], the IC50 stood at 0.35 µM.
With `Cc1[nH]c(/C=C2\C(=O)Nc3ccc(Br)cc32)c(C)c1C(=O)NCCN1CCCC1` [Example 52, 5-(5-Bromo-2-oxo-1,2-dihydroindol-3-ylidenemethyl)-2,4-dimethyl-1H-pyrrole-3-carboxylic acid (2-pyrrolidin-1-yl-ethyl)amide], the IC50 against GST-Flk1 was 0.08 µM; against GST-FGFR1, 1.26 µM; at PDGFR-β, less than 0.78 µM; at EGFR [1], 12.5 µM; at EGFR [2], greater than 100 µM; on HER-2 kinase it was greater than 100 µM. Moreover, the IC50 was 10.7 µM on human cdk2/cyclin A and 0.45 µM in experiment [3].
For the compound `CCN(CC)CCCNC(=O)c1c(C)[nH]c(/C=C2\C(=O)Nc3ccc(Br)cc32)c1C` [Example 70, 5-(5-Bromo-2-oxo-1,2-dihydroindol-3-ylidenemethyl)-2,4-dimethyl-1H-pyrrole-3-carboxylic acid (3-diethylaminopropyl)amide], the IC50 at GST-Flk1 is 0.09 µM; at GST-FGFR1 it was 1.5 µM; against PDGFR-β, 0.003 µM; on EGFR [1], 10.6 µM; at EGFR [2], 6.42 µM; on HER-2 kinase, 7.99 µM. In addition, the IC50 on human cdk2/cyclin A worked out at 12.6 µM; in experiment [3], 0.63 µM.
Regarding `Cc1[nH]c(/C=C2\C(=O)Nc3ccc(S(=O)(=O)Nc4cccc(Cl)c4)cc32)c(C)c1C(=O)NCCN1CCCC1` [Example 83, 5-[5-(3-Chloro-phenylsulfamoyl)-2-oxo-1,2-dihydroindol-3-ylidenemethyl]-2,4-dimethyl-1H-pyrrole-3-carboxylic acid (2-pyrrolidin-1-yl-ethyl)amide], the IC50 against GST-Flk1 came out at 0.34 µM; at GST-FGFR1, 0.41 µM; against PDGFR-β, 9.46 µM; at EGFR [1] it was 2.18 µM; on HER-2 kinase, 86.9 µM; in experiment [3], 0.008 µM.
Turning to `CCN(CC)CCNC(=O)c1c(C)[nH]c(/C=C2\C(=O)Nc3ccc(S(=O)(=O)Nc4cccc(Cl)c4)cc32)c1C` [Example 88, 5-[5-(3-Chloro-phenylsulfamoyl)-2-oxo-1,2-dihydroindol-3-ylidenemethyl]-2,4-dimethyl-1H-pyrrole-3-carboxylic acid (2-diethylaminoethyl)amide], the IC50 was 0.35 µM against GST-Flk1; 1.18 µM against GST-FGFR1; 8.06 µM at PDGFR-β; 2.36 µM at EGFR [1]; greater than 100 µM at HER-2 kinase; 0.09 µM in experiment [3].
In the case of `CNS(=O)(=O)c1ccc2c(c1)C(=Cc1[nH]cc(C(=O)O)c1C)C(=O)N2` [Example 115, 4-Methyl-5-(5-methylsulfamoyl-2-oxo-1,2-dihydro-indol-3-ylidenemethyl)-1H-pyrrole-3-carboxylic acid], the IC50 was greater than 100 µM against EGFR [1] and 0.006 µM at human cdk2/cyclin A.
For `CCOC(=O)CNC(=O)c1c[nH]c(C=C2C(=O)Nc3ccc(S(=O)(=O)NC)c(C)c32)c1C` [Example 116, {[4-Methyl-5-(4-methyl-5-methylsulfamoyl-2-oxo-1,2-dihydro-indol-3-ylidenemethyl)-1H-pyrrole-3-carbonyl]-amino}-acetic acid ethyl ester], in that order: greater than 100 µM and less than 0.0005 µM.
`CCOC(=O)CNC(=O)c1c[nH]c(/C=C2\C(=O)Nc3ccc(S(=O)(=O)NC)cc32)c1C` [Example 117, {[4-Methyl-5-(5-methylsulfamoyl-2-oxo-1,2-dihydro-indol-3-ylidenemethyl)-1H-pyrrole-3-carbonyl]-amino}-acetic acid ethyl ester]: the IC50 at GST-Flk1 turned out to be 0.91 µM; on PDGFR-β, 12.9 µM; at human cdk2/cyclin A, 0.006 µM.
On to `CNS(=O)(=O)c1ccc2c(c1)C(=Cc1[nH]cc(C(=O)NCC(=O)O)c1C)C(=O)N2` [Example 118, {[4-Methyl-5-(5-methylsulfamoyl-2-oxo-1,2-dihydro-indol-3-ylidenemethyl)-1H-pyrrole-3-carbonyl]-amino}-acetic acid], for which the IC50 was greater than 100 µM at EGFR [1] and 0.002 µM on human cdk2/cyclin A.
As for `CNS(=O)(=O)c1ccc2c(c1)/C(=C/c1[nH]cc(C(=O)N3CCCCC3)c1C)C(=O)N2` [Example 119, 3-[3-Methyl-4-(piperidine-1-carbonyl)-1H-pyrrol-2-ylmethylene]-2-oxo-2,3-dihydro-1H-indole-5-sulfonic acid methylamide], the IC50 was 1.38 µM against GST-Flk1; 61.6 µM at PDGFR-β; greater than 100 µM at EGFR [1]; greater than 100 µM at HER-2 kinase; less than 0.0005 µM on human cdk2/cyclin A.
